Publication PMC7144022, “Quinolinecarboxamides Inhibit the Replication of the Bovine Viral Diarrhea Virus by Targeting a Hot Spot for the Inhibition of Pestivirus Replication in the RNA-Dependent RNA Polymerase” (Molecules, 2020)

What was measured:
[1] = Cytotoxicity assay, proliferation of exponentially growing MDBK cells (MTS/PMS); type: cell-based, bovine; settings: bovine
Procedure: Assays were carried out, as described previously.

BVDV NADL virus = assay: CPE-based antiviral assay, BVDV NADL in MDBK cells (MTS/PMS); settings: for EC50: Bovine viral diarrhea virus isolates and strains, MDBK, 72 h; for S.I.: selectivity index, CC50 vs EC50
[2] = sheet CSFCII#, potency relative to TO502-2403 (EC50 0.2 µM)
[3] = sheet CSFCI#, potency relative to TO505-6180 (EC50 0.07 µM)

Cc1cccc(-n2ccc(NC(=O)c3cc(-c4cccnc4)nc4ccccc34)n2)c1 [CSFC-130, Cc1cccc(c1)n2ccc(n2)NC(=O)c4cc(nc3ccccc34)c5cccnc5]
CC50 at 5 days [1]: 5 µM
EC50 (BVDV NADL virus): 0.02 µM
fold increase (BVDV NADL virus; [2]): 10.00

Cc1noc(C)c1NC(=O)c1cc(-c2ccco2)nc2ccccc12 [CSFC-37, O=C(Nc1c(C)onc1C)c3cc(nc2ccccc23)c4ccco4]
CC50 at 5 days [1]: > 100 µM
EC50 (BVDV NADL virus): 34.2 µM
S.I. (BVDV NADL virus): 3
fold increase (BVDV NADL virus; [2]): 0.00585

COc1ccc(-c2cc(C(=O)Nc3nc4c(C)cccc4s3)c3ccccc3n2)cc1 [CSFC-117, COc1ccc(cc1)c3nc2ccccc2c(c3)C(=O)Nc4nc5c(C)cccc5s4]
CC50 at 5 days [1]: > 100 µM
EC50 (BVDV NADL virus): 1.7 µM
S.I. (BVDV NADL virus): 59
fold increase (BVDV NADL virus; [2]): 0.12

Cc1ccc2nc(N(C)C(=O)c3cc(-c4ccccc4)nc4ccccc34)sc2c1 [CSFC-21, O=C(c1cc(nc2ccccc21)c1ccccc1)N(C)c1nc2ccc(C)cc2s1]
CC50 at 5 days [1]: > 100 µM
EC50 (BVDV NADL virus): > 100 µM
S.I. (BVDV NADL virus): 1
fold increase (BVDV NADL virus; [3]): 0.0007

Cc1ccc2nc(-c3ccco3)cc(C(=O)Nc3nc4c(C)cccc4s3)c2c1 [CSFC-72, Cc1cc2c(cc1)nc(cc2C(=O)Nc3nc4c(C)cccc4s3)c5ccco5]
CC50 at 5 days [1]: > 100 µM
EC50 (BVDV NADL virus): 8.7 µM
S.I. (BVDV NADL virus): 11
fold increase (BVDV NADL virus; [2]): 0.023

Cc1ccc2nc(NC(=O)c3nccn3C)sc2c1 [CSFC-33, Cn1ccnc1C(=O)Nc1nc2ccc(C)cc2s1]
CC50 at 5 days [1]: > 100 µM
EC50 (BVDV NADL virus): 46 µM
S.I. (BVDV NADL virus): 2
fold increase (BVDV NADL virus; [3]): 0.00152

Cc1ccc2nc(NC(=O)c3cc4ccccc4[nH]3)sc2c1 [CSFC-28, Cc1ccc2nc(NC(=O)c3cc4ccccc4[NH]3)sc2c1]
CC50 at 5 days [1]: > 100 µM
EC50 (BVDV NADL virus): > 100 µM
S.I. (BVDV NADL virus): 1
fold increase (BVDV NADL virus; [3]): 0.0007

Cc1cccc2sc(NC(=O)c3cc(-c4ccncc4)nc4ccccc34)nc12 [CSFC-115, Cc1cccc2sc(nc12)NC(=O)c4cc(nc3ccccc34)c5ccncc5]
CC50 at 5 days [1]: > 100 µM
EC50 (BVDV NADL virus): 0.2 µM
S.I. (BVDV NADL virus): 500
fold increase (BVDV NADL virus; [2]): 1.00

Cc1ccc2nc(NC(=O)c3cc(-c4ccccc4F)nc4ccccc34)sc2c1 [CSFC-61, Fc1ccccc1c3nc2ccccc2c(c3)C(=O)Nc4nc5ccc(C)cc5s4]
CC50 at 5 days [1]: > 100 µM
EC50 (BVDV NADL virus): 0.2 µM
S.I. (BVDV NADL virus): 500
fold increase (BVDV NADL virus; [2]): 1.00

Cc1csc(-c2cc(C(=O)Nc3nc4c(C)cccc4s3)c3ccccc3n2)c1 [CSFC-50, Cc1cc(sc1)c3nc2ccccc2c(c3)C(=O)Nc4nc5c(C)cccc5s4]
CC50 at 5 days [1]: > 100 µM
EC50 (BVDV NADL virus): 1.9 µM
S.I. (BVDV NADL virus): 53
fold increase (BVDV NADL virus; [2]): 0.11

Cc1ccc2nc(NC(=O)c3ccccn3)sc2c1 [CSFC-25, Cc1ccc2nc(NC(=O)c3ccccn3)sc2c1]
CC50 at 5 days [1]: > 100 µM
EC50 (BVDV NADL virus): > 100 µM
S.I. (BVDV NADL virus): 1
fold increase (BVDV NADL virus; [3]): 0.0007

O=C(Nc1nc2ccc(C(F)(F)F)cc2s1)c1cc(-c2ccccc2)nc2ccccc12 [CSFC-94, FC(F)(F)c1ccc2nc(sc2c1)NC(=O)c4cc(nc3ccccc34)c5ccccc5]
CC50 at 5 days [1]: > 100 µM
EC50 (BVDV NADL virus): 100 µM
S.I. (BVDV NADL virus): 1
fold increase (BVDV NADL virus; [2]): 0.002

Cn1c(NC(=O)c2cc(-c3ccccc3)nc3ccccc23)nc2ccccc21 [CSFC-4, O=C(Nc1nc2ccccc2n1C)c1cc(nc2ccccc21)c1ccccc1]
CC50 at 5 days [1]: > 100 µM
EC50 (BVDV NADL virus): > 100 µM
S.I. (BVDV NADL virus): 1
fold increase (BVDV NADL virus; [3]): 0.0007

Cc1ccc(-n2ccc(NC(=O)c3cc(-c4ccccc4)nc4ccccc34)n2)cc1 [CSFC-141, Cc1ccc(cc1)n2ccc(n2)NC(=O)c4cc(nc3ccccc34)c5ccccc5]
CC50 at 5 days [1]: > 100 µM
EC50 (BVDV NADL virus): 0.6 µM
S.I. (BVDV NADL virus): 167
fold increase (BVDV NADL virus; [2]): 0.33

CC(C)(C)c1cc(NC(=O)c2cc(-c3ccccc3)nc3ccccc23)no1 [CSFC-32, O=C(Nc1cc(on1)C(C)(C)C)c3cc(nc2ccccc23)c4ccccc4]
CC50 at 5 days [1]: > 100 µM
EC50 (BVDV NADL virus): 7.2 µM
S.I. (BVDV NADL virus): 14
fold increase (BVDV NADL virus; [2]): 0.0278

Cc1cccc2sc(NC(=O)c3cc(-c4ccco4)nc4c(F)cccc34)nc12 [CSFC-80, Fc5cccc1c5nc(cc1C(=O)Nc2nc3c(C)cccc3s2)c4ccco4]
CC50 at 5 days [1]: > 100 µM
EC50 (BVDV NADL virus): 0.9 µM
S.I. (BVDV NADL virus): 111
fold increase (BVDV NADL virus; [2]): 0.22

Cc1cccc2sc(NC(=O)c3cc(-c4ccco4)nc4ccc(Cl)cc34)nc12 [CSFC-84, Clc1cc2c(cc1)nc(cc2C(=O)Nc3nc4c(C)cccc4s3)c5ccco5]
CC50 at 5 days [1]: > 100 µM
EC50 (BVDV NADL virus): 11.5 µM
S.I. (BVDV NADL virus): 9
fold increase (BVDV NADL virus; [2]): 0.0174

Cc1cccc2sc(NC(=O)c3cc(-c4cc5ccccc5o4)nc4ccccc34)nc12 [CSFC-90, Cc1cccc2sc(nc12)NC(=O)c4cc(nc3ccccc34)c5cc6ccccc6o5]
CC50 at 5 days [1]: > 100 µM
EC50 (BVDV NADL virus): 3 µM
S.I. (BVDV NADL virus): 33
fold increase (BVDV NADL virus; [2]): 0.07

O=C(Nc1ccccn1)c1cc(-c2ccccc2)nc2ccccc12 [CSFC-6, O=C(Nc1ccccn1)c1cc(nc2ccccc21)c1ccccc1]
CC50 at 5 days [1]: > 100 µM
EC50 (BVDV NADL virus): > 100 µM
S.I. (BVDV NADL virus): 1
fold increase (BVDV NADL virus; [3]): 0.0007

Cc1cccc2sc(NC(=O)c3cc(-c4cccc(F)c4)nc4ccccc34)nc12 [CSFC-62, Fc1cccc(c1)c3nc2ccccc2c(c3)C(=O)Nc4nc5c(C)cccc5s4]
CC50 at 5 days [1]: 25 ± 5 µM
EC50 (BVDV NADL virus): 25 µM
S.I. (BVDV NADL virus): 1
fold increase (BVDV NADL virus; [2]): 0.008

COc1ccc2nc(NC(=O)c3cc(-c4cccc(F)c4)nc4ccccc34)sc2c1 [CSFC-67, Fc1cccc(c1)c3nc2ccccc2c(c3)C(=O)Nc4nc5ccc(cc5s4)OC]
CC50 at 5 days [1]: > 100 µM
EC50 (BVDV NADL virus): 0.9 µM
S.I. (BVDV NADL virus): 111
fold increase (BVDV NADL virus; [2]): 0.22

Cc1cccc2sc(NC(=O)c3cc(-c4ccc(Cl)s4)nc4ccccc34)nc12 [CSFC-48, Clc1ccc(s1)c3nc2ccccc2c(c3)C(=O)Nc4nc5c(C)cccc5s4]
CC50 at 5 days [1]: 14 ± 0.7 µM
EC50 (BVDV NADL virus): 14 µM
S.I. (BVDV NADL virus): 1
fold increase (BVDV NADL virus; [2]): 0.0143

Cc1ccc2nc(NC(=O)c3cc4ccccc4n3C)sc2c1 [CSFC-26, Cn1c2ccccc2cc1C(=O)Nc1nc2ccc(C)cc2s1]
CC50 at 5 days [1]: > 100 µM
EC50 (BVDV NADL virus): > 100 µM
S.I. (BVDV NADL virus): 1
fold increase (BVDV NADL virus; [3]): 0.0007

COc1ccc2nc(NC(=O)c3cc(-c4ccco4)nc4ccc(Cl)cc34)sc2c1 [CSFC-81, Clc1cc2c(cc1)nc(cc2C(=O)Nc3nc4ccc(cc4s3)OC)c5ccco5]
CC50 at 5 days [1]: > 100 µM
EC50 (BVDV NADL virus): 24.5 µM
S.I. (BVDV NADL virus): 4
fold increase (BVDV NADL virus; [2]): 0.00816

O=C(Nc1nccs1)c1cc(-c2ccccc2)nc2ccccc12 [CSFC-16, O=C(c1cc(nc2ccccc12)c3ccccc3)Nc4nccs4]
CC50 at 5 days [1]: > 100 µM
EC50 (BVDV NADL virus): 30 µM
S.I. (BVDV NADL virus): 3
fold increase (BVDV NADL virus; [2]): 0.00667

O=C(Nc1ccn(-c2ccccc2)n1)c1cc(-c2ccccc2Cl)nc2ccccc12 [CSFC-111, Clc1ccccc1c3nc2ccccc2c(c3)C(=O)Nc4ccn(n4)c5ccccc5]
CC50 at 5 days [1]: > 100 µM
EC50 (BVDV NADL virus): 0.4 µM
S.I. (BVDV NADL virus): 250
fold increase (BVDV NADL virus; [2]): 0.50

O=C(Nc1nc2ccccc2[nH]1)c1cc(-c2ccccc2)nc2ccccc12 [CSFC-3, O=C(Nc1nc2ccccc2[NH]1)c1cc(nc2ccccc21)c1ccccc1]
CC50 at 5 days [1]: > 100 µM
EC50 (BVDV NADL virus): > 100 µM
S.I. (BVDV NADL virus): 1
fold increase (BVDV NADL virus; [3]): 0.0007
